Patent US11225505B2, “Antimicrobial polymyxin derivative compounds” (MONASH UNIVERSITY, priority 2015, dated 2022)
≈ marks a conversion by molar mass, not a printed value. Where a SMILES comes first, the peptide text is derived from it. Bridges are numbered along the chain shown (N, C = ends). [ ]: non-standard residue; d: D form. The star is where a group is joined. X42 = O=C(c1nc2ccccc2[nH]1)*; X62 = O=C(c1cc(Br)c(Br)s1)*; X1 = O=C(c1ncc(Cl)cc1Cl)*; Dab = NCC[C@H](N)C(=O)O; X61 = O=C(c1ccc(Br)s1)*; Abu = CC[C@H](N)C(=O)O; Dap = NC[C@H](N)C(=O)O

Columns and labels:
Type in all cases: cell-based
[1] = test system: Klebsiella pneumoniae Kp BM1; conditions: Kp BM1
Outline: (§1)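 MICs were determined by broth microdilution in cation-adjusted Mueller-Hinton broth following the CLSI M100-S24 protocol. Lipopeptides were tested as trifluoroacetic acid salts against polymyxin-susceptible Gram-negative strains, with polymyxin B sulphate as control. FADDI-PA022 and FADDI-AB034 are multidrug-resistant clinical isolates.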

[2] = test system: Pseudomonas aeruginosa ATCC 27853; conditions: ATCC 27853
Outline: (§2)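 Lipopeptides (TFA salts) tested against Gram-negative strains by CLSI broth microdilution using cation-adjusted Mueller-Hinton broth; MIC recorded, polymyxin B sulphate as control.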

[3] = test system: Pseudomonas aeruginosa FADDI-PA01; conditions: FADDI-
Outline: as §2

[4] = test system: Acinetobacter baumannii FADDI-AB034; conditions: FADDI-AB034
Outline: as §2

[5] = test system: Enterobacter cloacae FADDI-EC001; conditions: FADDI-EC001
Outline: as §1

[6] = test system: Pseudomonas aeruginosa FADDI-PA022; conditions: FADDI-PA022
Outline: as §2

[7] = test system: Pseudomonas aeruginosa FADDI-PA038; conditions: FADDI-PA038
Outline: as §2

[8] = test system: Klebsiella pneumoniae FADDI-KP022; conditions: FADDI-KP022
Outline: as §2

[9] = test system: Acinetobacter baumannii ATCC 17978; conditions: ATCC 17978
Outline: as §2

[10] = test system: Klebsiella pneumoniae FADDI-KP032; conditions: FADDI-KP032
Outline: as §2

[11] = test system: Enterobacter cloacae FADDI-EC006; conditions: FADDI-EC006
Outline: as §2

[12] = test system: Enterobacter cloacae FADDI-EC003; conditions: FADDI-EC003
Outline: as §2

[13] = test system: Acinetobacter baumannii FADDI-AB030; assay: microbe, parasite or virus in culture; conditions: FADDI-AB030
Outline: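 Lipopeptide TFA salts tested against the multidrug-resistant clinical isolate by CLSI (M100-S24) broth microdilution in cation-adjusted Mueller-Hinton broth, with polymyxin B sulphate as control; MIC read.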

Row | Compound | Minimum inhibitory concentration [1] | Minimum inhibitory concentration [2] | Minimum inhibitory concentration [3] | Minimum inhibitory concentration [4] | Minimum inhibitory concentration [5] | Minimum inhibitory concentration [6] | Minimum inhibitory concentration [7] | Minimum inhibitory concentration [8] | Minimum inhibitory concentration [9] | Minimum inhibitory concentration [10] | Minimum inhibitory concentration [11] | Minimum inhibitory concentration [12] | Minimum inhibitory concentration [13]
1 | CC[C@@H]1NC(=O)[C@@H](CC(C)C)NC(=O)[C@H](CCN)NC(=O)[C@@H](NC(=O)[C@H](CN)NC(=O)[C@@H](NC(=O)[C@H](CCN)NC(=O)c2nc3ccccc3[nH]2)[C@@H](C)O)CCNC(=O)[C@H]([C@@H](C)O)NC(=O)[C@H](CCN)NC(=O)[C@H](CCN)NC1=O [Compound 47] (X42-[Dab]T[Dap][Dab][Dab][dL][Abu][Dab][Dab]T; lactam 4-C) | 0.25 mg/L (≈ 0.221 µM) | 0.5 mg/L (≈ 0.442 µM) | <0.125 mg/L | 1 mg/L (≈ 0.884 µM) | <0.125 mg/L | 0.25 mg/L (≈ 0.221 µM) | 0.5 mg/L (≈ 0.442 µM) | <0.125 mg/L | 1 mg/L (≈ 0.884 µM) | 0.25 mg/L (≈ 0.221 µM) | 0.5 mg/L (≈ 0.442 µM) | <0.125 mg/L | 0.25 mg/L (≈ 0.221 µM)
2 | CC(C)C[C@H]1NC(=O)[C@H](CCN)NC(=O)[C@@H](NC(=O)[C@H](CN)NC(=O)[C@@H](NC(=O)[C@H](CCN)NC(=O)c2ncc(Cl)cc2Cl)[C@@H](C)O)CCNC(=O)[C@H]([C@@H](C)O)NC(=O)[C@H](CCN)NC(=O)[C@H](CCN)NC(=O)[C@H](C(C)C)NC1=O [Compound 13] (X1-[Dab]T[Dap][Dab][Dab][dL]V[Dab][Dab]T; lactam 4-C) | 0.25 mg/L (≈ 0.213 µM) | 0.5 mg/L (≈ 0.425 µM) | 0.5 mg/L (≈ 0.425 µM) | 2 mg/L (≈ 1.7 µM) | <0.125 mg/L | 0.5 mg/L (≈ 0.425 µM) | 1 mg/L (≈ 0.851 µM) | 0.25 mg/L (≈ 0.213 µM) | 1 mg/L (≈ 0.851 µM) | 0.25 mg/L (≈ 0.213 µM) | <0.125 mg/L | <0.125 mg/L | 0.5 mg/L (≈ 0.425 µM)
3 | CC[C@@H]1NC(=O)[C@@H](CC(C)C)NC(=O)[C@H](CCN)NC(=O)[C@@H](NC(=O)[C@H](CN)NC(=O)[C@@H](NC(=O)[C@H](CCN)NC(=O)c2ccc(Br)s2)[C@@H](C)O)CCNC(=O)[C@H]([C@@H](C)O)NC(=O)[C@H](CCN)NC(=O)[C@H](CCN)NC1=O [Compound 78] (X61-[Dab]T[Dap][Dab][Dab][dL][Abu][Dab][Dab]T; lactam 4-C) | <0.125 mg/L | 0.25 mg/L (≈ 0.213 µM) | <0.125 mg/L | 1 mg/L (≈ 0.85 µM) | 0.25 mg/L (≈ 0.213 µM) | 0.25 mg/L (≈ 0.213 µM) | 0.5 mg/L (≈ 0.425 µM) | 0.25 mg/L (≈ 0.213 µM) | 0.25 mg/L (≈ 0.213 µM) | 0.5 mg/L (≈ 0.425 µM) | 0.25 mg/L (≈ 0.213 µM) | <0.125 mg/L | 0.5 mg/L (≈ 0.425 µM)
4 | CC[C@@H]1NC(=O)[C@@H](CC(C)C)NC(=O)[C@H](CCN)NC(=O)[C@@H](NC(=O)[C@H](CN)NC(=O)[C@@H](NC(=O)[C@H](CCN)NC(=O)c2cc(Br)c(Br)s2)[C@@H](C)O)CCNC(=O)[C@H]([C@@H](C)O)NC(=O)[C@H](CCN)NC(=O)[C@H](CCN)NC1=O [Compound 83] (X62-[Dab]T[Dap][Dab][Dab][dL][Abu][Dab][Dab]T; lactam 4-C) | <0.125 mg/L | 0.25 mg/L (≈ 0.199 µM) | 0.25 mg/L (≈ 0.199 µM) | <0.125 mg/L | 0.5 mg/L (≈ 0.398 µM) | 0.25 mg/L (≈ 0.199 µM) | 0.5 mg/L (≈ 0.398 µM) | <0.125 mg/L | 0.25 mg/L (≈ 0.199 µM) | 0.25 mg/L (≈ 0.199 µM) | <0.125 mg/L | 0.25 mg/L (≈ 0.199 µM) | <0.125 mg/L
